According to patent US9102607B2 (priority 2009, dated 2015):
Converted amounts (≈) assume the structure as drawn. “And” between values parts separate entries of the source, which are not always exact repeats. Equal entries are not always repeated. Where two headings read alike, the source gives them in different places.

Tests used:
TPA-induced ear oedema = test: Anti-inflammatory activity after a single topical administration in TPA-induced ear oedema; assay type: in vivo, mouse; settings: for Inhibition vs TPA (%) / Ear oedema Mean / anti-inflammatory effect (in words): single topical application; for Inhibition vs TPA (%): T6 h; for Ear oedema Mean: ear thickness at T6 h; for anti-inflammatory effect compared to BPO 5% (in words): compared to BPO at 5%
Description: the aim is to evaluate the anti-inflammatory activity of the peroxides by measuring the thickness of mouse ear after TPA topical application. The anti-inflammatory activity is defined as a inhibition percentage of the TAP-induced ear oedema.
An oedema was induced by a single topical application of 20 μl of TPA dissolved in acetone at 0.01%.
Then a single topical application of tested compounds dissolved in TPA solution.
Ear thickness was measured at T6 h.
Results are expressed in percentages based on the inhibition on the oedema induced by the TPA application.
Benzoyl peroxide (BPo) was tested 2 times as a reference peroxide.

P. acnes CIP53.117 = test: microbe, parasite or virus in culture; assay type: cell-based, Propionibacterium acnes
[1] = compound 5% in TPA 0.01% solution
[2] = Cutibacterium acnes, CIP53, 72 h
[3] = compound 1% in TPA 0.01% solution
[4] = compound 2.5% in TPA 0.01% solution

Structure (SMILES) | Inhibition vs TPA (%) (TPA-induced ear oedema; [1]) | Ear oedema Mean (TPA-induced ear oedema; [1]) | MIC (P. acnes CIP53.117; [2]) [µg/mL] | anti-inflammatory effect (in words) (TPA-induced ear oedema; 1%, 2.5% and 5%) | anti-inflammatory effect compared to BPO 5% (in words) (TPA-induced ear oedema) | Inhibition vs TPA (%) (TPA-induced ear oedema; [3]) | Ear oedema Mean (TPA-induced ear oedema; [3]) | Inhibition vs TPA (%) (TPA-induced ear oedema; [4]) | Ear oedema Mean (TPA-induced ear oedema; [4]) | anti-inflammatory effect (in words) (TPA-induced ear oedema; at 5%) | MIC (P. acnes CIP53.117) [µg/mL]
O=C(OOC(=O)c1ccccc1)c1ccccc1 [BPO, Benzoyl peroxide, reference compound] | 21.4% and 27.8% | 17.60 and 20.80 | – | – | – | – | – | – | – | – | –
CCOC(=O)Oc1ccccc1C(=O)OOC(=O)c1ccccc1 [Example 1, (2-(Ethoxycarbonyloxy)benzoyl)benzoyl peroxide] | 53.5% | 13.40 | 80 (≈ 242 µM) | dose-dependent anti-inflammatory effect | significantly superior | 13.9 | 24.80 | 29.9 | 20.20 | – | –
CC(C)(C)OC(=O)Oc1ccccc1C(=O)OOC(=O)c1ccccc1 [Example 2, (2-(tert-Butoxycarbonyloxy)benzoyl)benzoyl peroxide] | – | – | 40 (≈ 112 µM) | – | – | – | – | – | – | – | –
CCOC(=O)Oc1ccccc1C(=O)OOC(=O)c1ccccc1OC(=O)OCC [Example 3, Bis(2-(ethoxycarbonyloxy)benzoyl)peroxide] | 81.1% | 4.80 | 160 (≈ 382 µM) | strong dose-dependent anti-inflammatory effect | – | 45.7 | 13.80 | 66.1 | 8.60 | – | –
CC(C)OC(=O)Oc1ccccc1C(=O)OOC(=O)c1ccccc1 [Example 5, (2-(Isopropoxycarbonyloxy)benzoyl)benzoyl peroxide] | 72.3% | 6.20 | 40 (≈ 116 µM) | – | stronger anti-inflammatory effect | 8.9 | 20.40 | 44.6 | 12.40 | significant anti-inflammatory effect | –
CC(C)OC(=O)Oc1ccccc1C(=O)OOC(=O)c1ccccc1OC(=O)OC(C)C [Example 6, Bis(2-(isopropoxycarbonyloxy)benzoyl)peroxide] | 93.8% | 1.40 | 80 (≈ 179 µM) | strong dose-dependent anti-inflammatory effect | stronger anti-inflammatory effect | 57.1 | 9.60 | 78.6 | 4.80 | – | –
CC(C)(C)C(=O)Oc1ccccc1C(=O)OOC(=O)c1ccccc1 [Example 9, (2-(tert-Butyryloxy)benzoyl)benzoyl peroxide] | – | – | – | – | – | – | – | – | – | – | 320 (≈ 935 µM)
CC(C)C(=O)Oc1ccccc1C(=O)OOC(=O)c1ccccc1 [Example 10, (2-(Isobutyryloxy)benzoyl)benzoyl peroxide] | – | – | 80 (≈ 244 µM) | – | – | – | – | – | – | – | –
O=C(CC12CC3CC(CC(C3)C1)C2)Oc1ccccc1C(=O)OOC(=O)c1ccccc1 [Example 12, [2-(2-(Adamantan-1-yl)acetoxy)benzoyl]benzoyl peroxide] | – | – | 320 (≈ 736 µM) | – | – | – | – | – | – | – | –
